Data set [1] concerns Candida albicans. The data set is described as follows: Disk diffusion method, fungi (Method/Test A). It is filed as cell-based. Particulars: for zone (Test A, disk diffusion; quantity not given): C. albicans B-311; for zone size: C. albicans. As to the method: (§1) A. Fungi (Disk diffusion method):
(§2) Candida albicans strains B-311 and BC 759, obtained from Smith Kline and French Laboratory Culture Collection were grown in a trypticase soy broth at 28° for 7 hours. The seeded plates, with this medium containing 1.5% agar, were prepared by inoculating 1 ml of the inoculum in 1 l. of yeast-carbon base medium, containing 200 μg/ml of lysine or glutamate as a sole source of nitrogen.
(In general: A growth-free zone around the sample is the usual read-out of agar diffusion tests.)

The subject of data set [2] is E. coli M. 2626. The data set is described as follows: Disk diffusion method, bacteria (Method C). It is filed as cell-based. Particulars: Escherichia coli. An excerpt:
C. Bacteria (Disk diffusion method): A method similar to A above but using E. coli was used which employs a M-9 medium (basic salts with ammonium ion as the nitrogen source and glucose as the carbon source).

Data set [3] has as its system C. albicans. As to the kind of experiment: Minimum inhibitory concentration, two-fold broth dilution (Method/Test B). The class given is cell-based, Candida albicans. Here is the method: (§3) B. Fungi [Minimum inhibitory […] (MIC)]:
(§4) The minimum inhibitory concentration of the test compound was determined by two-fold broth dilution tests in yeast carbon base medium, containing 200 μg/ml of sodium glutamate. The compounds were diluted from […] to 0.25 μg/ml and the test medium was inoculated with a suspension of C. albicans grown in the same medium for 15 hours at 37°. The final inoculum sizes in the tests we approximately 10^4 cfu/ml and 10^3 cfu/ml. The tubes were incubated at 37° for 24 and 48 hours and observed for inhibition.
(In broth dilution the organism is exposed to a series of concentrations in liquid medium.)

The target of data set [4] is aminopeptidase M (Homo sapiens, UniProt P15144). The data set is described as follows: Detector peptide as enzyme substrate, aminopeptidase M. It is filed as biochemical. An excerpt: (§5) The compounds of formula I or IA in which W is a C1-6 -alkylthio, a functionalized C1-6 -alkylthio for example a C1-6 -aminoalkylthio or a phenylthio as defined above by formula II are of particular utility for detecting protease/peptidase activity in biological systems. For example, the compounds are more sensitive chromogenic detectors of protease activity in biological liquids, such as serum, than is leucine p-nitroanilide. This utility depends on the release, by protease action, of the mercaptan, H-S-R^2, which is assayed quantitatively by colorimetry using Ellman's reagent as described in the examples.
Sequence of aminopeptidase M (P15144 whole entry, species assumed): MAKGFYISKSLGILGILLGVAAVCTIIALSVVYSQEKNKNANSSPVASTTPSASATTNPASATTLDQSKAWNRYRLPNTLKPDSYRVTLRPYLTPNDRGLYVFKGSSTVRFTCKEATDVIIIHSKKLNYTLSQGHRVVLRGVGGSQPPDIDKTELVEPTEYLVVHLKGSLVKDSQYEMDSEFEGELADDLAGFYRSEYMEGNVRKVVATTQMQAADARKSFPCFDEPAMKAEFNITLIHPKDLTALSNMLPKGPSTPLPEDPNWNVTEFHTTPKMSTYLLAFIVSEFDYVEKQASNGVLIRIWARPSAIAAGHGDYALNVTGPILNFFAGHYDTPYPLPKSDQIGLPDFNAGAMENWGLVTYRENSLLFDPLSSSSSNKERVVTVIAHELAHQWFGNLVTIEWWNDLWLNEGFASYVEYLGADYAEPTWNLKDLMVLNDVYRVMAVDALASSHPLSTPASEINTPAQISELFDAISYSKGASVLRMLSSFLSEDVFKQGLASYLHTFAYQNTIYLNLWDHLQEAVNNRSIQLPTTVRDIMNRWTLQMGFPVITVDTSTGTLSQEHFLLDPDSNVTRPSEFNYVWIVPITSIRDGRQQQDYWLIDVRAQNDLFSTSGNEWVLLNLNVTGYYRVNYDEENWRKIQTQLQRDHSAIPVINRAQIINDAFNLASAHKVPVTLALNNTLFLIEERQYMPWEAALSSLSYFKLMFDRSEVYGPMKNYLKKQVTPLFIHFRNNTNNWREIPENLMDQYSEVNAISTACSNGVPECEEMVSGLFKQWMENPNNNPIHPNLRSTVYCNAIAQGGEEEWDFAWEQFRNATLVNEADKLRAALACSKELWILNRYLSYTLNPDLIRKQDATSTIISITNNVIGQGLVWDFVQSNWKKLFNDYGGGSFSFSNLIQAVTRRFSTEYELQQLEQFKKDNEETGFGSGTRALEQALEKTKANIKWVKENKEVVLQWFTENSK

Data set [5] deals with leucine aminopeptidase (Sus scrofa, UniProt P28839). As to the kind of experiment: Detector peptide as enzyme substrate, leucine aminopeptidase. It is filed as biochemical.
Sequence of leucine aminopeptidase (P28839 whole entry): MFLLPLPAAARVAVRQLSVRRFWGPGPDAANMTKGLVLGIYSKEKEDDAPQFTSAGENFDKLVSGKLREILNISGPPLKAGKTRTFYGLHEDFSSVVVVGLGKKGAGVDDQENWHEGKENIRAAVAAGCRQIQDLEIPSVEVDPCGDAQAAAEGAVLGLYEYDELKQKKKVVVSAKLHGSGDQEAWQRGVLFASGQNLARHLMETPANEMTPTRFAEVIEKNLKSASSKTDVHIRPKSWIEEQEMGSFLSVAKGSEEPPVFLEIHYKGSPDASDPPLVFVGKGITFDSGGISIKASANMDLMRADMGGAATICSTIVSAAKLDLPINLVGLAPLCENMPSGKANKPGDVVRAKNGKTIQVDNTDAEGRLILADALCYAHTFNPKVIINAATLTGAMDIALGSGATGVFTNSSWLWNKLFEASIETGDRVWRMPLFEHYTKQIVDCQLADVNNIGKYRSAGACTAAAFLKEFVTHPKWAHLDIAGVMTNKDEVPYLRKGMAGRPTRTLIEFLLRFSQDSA
From the text: as §5

Data set [6] has as its target T1, trypsin (Bos taurus, UniProt P00760).
T1 construct: gene PRSS1
T1 sequence (P00760 24-246): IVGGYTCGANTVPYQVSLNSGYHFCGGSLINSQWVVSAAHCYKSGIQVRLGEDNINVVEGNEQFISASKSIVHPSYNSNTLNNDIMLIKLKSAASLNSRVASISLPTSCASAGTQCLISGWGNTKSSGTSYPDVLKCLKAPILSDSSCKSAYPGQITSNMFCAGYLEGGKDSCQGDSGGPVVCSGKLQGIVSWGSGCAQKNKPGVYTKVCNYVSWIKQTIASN
The data set is described as follows: Detector peptide as enzyme substrate, trypsin. It is filed as biochemical.
From the text: as §5

For data set [7], the system named is Nematospiroides dubius. The settings on record: mice, subcutaneously 15 mg/kg for eight days; compared with albendazole.
In data set [8] the test system is Caenorhabditis elegans. Particulars: concentrations of 10 and 100 μg/ml.
Data set [9] relates to Fasciola hepatica. Particulars: mice, subcutaneously 15 mg/kg for eight days; compared with albendazole.
The test system of data set [10] is hog kidney leucine aminopeptidase. As to the kind of experiment: Enzyme catalyzed warhead release (Ellman reagent, 412 nm). It is filed as biochemical. The settings on record: pH 7.5. (In general: In Ellman's method for cholinesterases, released thiocholine reacts with DTNB.)
A short description of data set [11]: Stability in aqueous phosphate buffer, spontaneous warhead release (Ellman reagent, 412 nm). The class given is physicochemical. The settings on record: for λ(412) absorbance: before enzyme. Here is the method: (§6) The release was maintained at a linear rate over the observation period (5 min). […] This observation is consistent with literature reports of the optimal pH necessary for the efficacy of this enzyme.
(§7) These observations were obtained by colorimetric assay, which involves the reaction between a free sulfhydryl group and 5,5'-dithio-bis(2-nitrobenzoic acid), the Ellman reagent, to produce a yellow color as follows: [drawing 12]
(§8) The peptide from Example 4 was dissolved in 4 mM of phosphate buffer solution (pH 7) containing in Ellman reagent at a level of 4 mg/ml to produce a 1 mM solution of the peptide. The resulting mixture was monitored using a spectrophotometer at a wavelength of 412 nm. To 1 ml of this solution was added 100 μg of hog kidney leucine aminopeptidase (Sigma) and the enzymatic hydrolysis was continuously monitored at 412 nm.
(§9) Reaction mixture contained 1 mM peptide, Ellman's reagent 4 mg/ml, phosphate buffer 4 mM (pH 7).

Data set [12] relates to hog kidney leucine aminopeptidase. The data set is described as follows: Enzyme catalyzed warhead release (Ellman reagent, 412 nm). The class given is biochemical. The settings on record: for λ(412) absorbance: enzyme added. Here is the method: as §6, §7, §8, §9
Data set [13] relates to representative fungal and bacterial organisms. The data set is described as follows: Biological screen described in the utility example. It is filed as cell-based. The settings on record: product found to be not completely deblocked. Here is the method:
A prototypal compound, L-alanyl-2-(5-fluorouracil-2-yl)-L-glycine, was evaluated against representative fungal and bacterial organisms.
as §1, §2, §3, §4
C. Bacteria (Disk diffusion method):
A method similar to A above but using E. coli was used which employs a M-9 medium (basic salts with ammonium ion as the nitrogen source and glucose as the carbon source).

≈ marks a conversion by molar mass, not a printed value. Read-outs that look alike come from different tables or passages of the source.

In the case of `O=c1[nH]cc(F)c(=O)[nH]1` [Example 5-FU, 5-fluorouracil, reference compound], the zone (Test A, disk diffusion; quantity not given) in [1] (Conc. 1.5 μg/desk) was determined as 22 mm; in [1] (Conc. 3.0 μg/desk), 30 mm; in data set [1] (Conc. 6.0 μg/desk), 30 mm; in data set [1] (Conc. 12.5 μg/desk), 40 mm; in [1] (Conc. 25 μg/desk), 44 mm. Besides, in data set [2] (conc. 1.5 μg/disk), the zone of inhibition at 1.5 µg/disc stood at 33 mm. In [2] (conc. 3.0 μg/disk), the zone of inhibition at 3 µg/disc was 38 mm. In [2] (conc. 6.0 μg/disk), this compound registered a zone of inhibition at 6 µg/disc of 40 mm. The same compound yielded a zone of inhibition at 12.5 µg/disc in [2] (conc. 12.5 μg/disk) of 41 mm. This compound displayed a zone of inhibition at 25 µg/disc in data set [2] (conc. 25.0 μg/disk) of 46 mm. The MIC in data set [3] (Candida albicans, C. albicans strain 3153A, read-out: MIC) stood at 1 µg/mL (≈ 7.69 µM); in data set [3] (Candida albicans, C. albicans strain B 311, read-out: MIC), 4 µg/mL (≈ 30.8 µM); in data set [3] (Candida albicans, C. albicans strain BC 759, read-out: MIC), 1 µg/mL (≈ 7.69 µM).
Turning to `C[C@H](N)C(=O)NC(Sc1ccccc1)C(=O)O` (stereo partly drawn) [L-alanyl-L-(α-phenylthio)glycine], the “use as enzyme substrate” value in [4] and in data set [5] was “successfully used as enzyme substrates” each time.
For “N-carbobenzoxy-L-alanyl-D,L-2-(3-aminopropylthio)-glycine, benzyl ester [Example 23]”, in data set [6], the substrate for trypsin entry was “shown to be substrates”.
For “L-alanyl-2-(albendazole)-D,L-glycine [Example 22]”, the antiparasitic activity result in data set [7] is recorded as “comparable to, or greater than, albendazole”; in data set [9] it was “comparable to, or greater than, albendazole”. Further, the nematostatic activity entry in data set [8] is “nematostatic activity was demonstrated”.
Take `C[C@H](N)C(=O)NC(C(=O)O)n1cc(F)c(=O)[nH]c1=O` (mixture of isomers) [Example 2, L-alanyl-2-(5-fluorouracil-1-yl)-D,L-glycine]: the zone (Test A, disk diffusion; quantity not given) in data set [1] (Conc. 1.5 μg/desk, listed as L-DL) stood at 12 mm; in data set [1] (Conc. 3.0 μg/desk, listed as L-DL), 18 mm; in data set [1] (Conc. 6.0 μg/desk, listed as L-DL) it was 20 mm; in data set [1] (Conc. 12.5 μg/desk, listed as L-DL), 20 mm; in [1] (Conc. 25 μg/desk, listed as L-DL) it was 20 mm. Further, the MIC came to 25 µg/mL in [3] (C. albicans strain 3153A, listed as L-DL); 25 µg/mL in data set [3] (C. albicans strain B 311, listed as L-DL); 6.3 µg/mL in [3] (C. albicans strain BC 759, listed as L-DL).
On to “L-alanyl-2-(2,6-dicarboxy-pyridyl-4-)-ethylthio-D,L-glycine [Example 4]”, for which the “enzymatically catalyzed release rate relative to pH 7.0” value in data set [10] was “twice the previous rate”. Moreover, the “Spontaneous Rate (warhead release)” value in data set [11] (1 mM peptide, phosphate buffer 4 mM pH 7, no enzyme) is 65 p moles per min. Moreover, in data set [11] (0.2 M phosphate buffer (pH 7.0)), the “t 1/2 (stability)” value is ~ 5000 min. In addition, the “λ(412) absorbance” value is on record as 0.090 in data set [11] (Time (sec) 0, 1 mM peptide, Ellman's reagent 4 mg/ml, phosphate buffer 4 mM pH 7); 0.093 in data set [11] (Time (sec) 1, 1 mM peptide, phosphate buffer pH 7); 0.095 in data set [11] (Time (sec) 2, 1 mM peptide, phosphate buffer pH 7); 0.109 in data set [12] (Time (sec) 3, 1 mM peptide, phosphate buffer pH 7); 0.127 in data set [12] (Time (sec) 4); 0.142 in [12] (Time (sec) 5). Also, the “λ(412) absorbance” value in [12] (Time (sec) 6) was 0.161; in data set [12] (Time (sec) 7), 0.180; in [12] (Time (sec) 8) it was 0.199. In addition, in data set [11] (pH 7.5, compared with pH 7.0), the non-enzymatic warhead release result is on record as “no noticeable increase”. Also, the “Rate plus 100 μg enzyme (warhead release)” value in data set [12] (1 mM peptide, phosphate buffer 4 mM pH 7, 100 μg leucine aminopeptidase) turned out to be 504 p moles per min. Further, the “warhead release upon addition of Leucine Aminopeptidase” value in data set [12] (phosphate buffer pH 7.0, observation period 5 min) is on record as “the warhead was released”.
Take `C[C@H](N)C(=O)NC(C(=O)O)n1cc(F)c(=O)[nH]c1=O` (stereo partly drawn) [L-alanyl-2-(5-fluorouracil-1-yl)-D-glycine]: the zone (Test A, disk diffusion; quantity not given) in data set [1] (Conc. 1.5 μg/desk, listed as L,D) stood at 0 mm; in [1] (Conc. 3.0 μg/desk, listed as L,D), 0 mm; in [1] (Conc. 6.0 μg/desk, listed as L,D), 0 mm; in [1] (Conc. 12.5 μg/desk, listed as L,D) it was 0 mm; in [1] (Conc. 25 μg/desk, listed as L,D), 0 mm. Moreover, the zone size in data set [1] (62 μg/ml), in data set [1] (125 μg/ml), in data set [1] (250 μg/ml), in data set [1] (500 μg/ml) and in [1] (1000 μg/ml) was 0 mm in each case. Moreover, the MIC was above 200 µg/mL in [3] (C. albicans B-310, 24 hours); above 100 µg/mL in data set [3] (C. albicans strain 3153A, listed as L-D); above 100 µg/mL in data set [3] (C. albicans strain B 311, listed as L-D); above 100 µg/mL in data set [3] (C. albicans strain BC 759, listed as L-D).
Take `C[C@H](N)C(=O)NC(NNS(=O)(=O)c1cc(C(=O)O)cc(C(=O)O)c1)C(=O)O` (stereo partly drawn) [Example 12, L-alanyl-2-(3,5-dicarboxy-phenylsulfohydrazino)-D,L-glycine]: the “activity in the biological screen” value in data set [13] was “not active”.
In the case of `C[C@H](N)C(=O)N[C@H](C(=O)O)n1cc(F)c(=O)[nH]c1=O` [L-alanyl-2-(5-fluorouracil-1-yl)-L-glycine], the zone (Test A, disk diffusion; quantity not given) in data set [1] (Conc. 1.5 μg/desk) is 16 mm; in data set [1] (Conc. 3.0 μg/desk), 20 mm; in data set [1] (Conc. 6.0 μg/desk), 22 mm; in [1] (Conc. 12.5 μg/desk), 26 mm; in [1] (Conc. 25 μg/desk) it was 30 mm. Besides, the zone size in data set [1] (62 μg/ml) turned out to be 16 mm; in data set [1] (125 μg/ml), 20 mm; in data set [1] (250 μg/ml), 22 mm; in data set [1] (500 μg/ml) it was 26 mm; in [1] (1000 μg/ml), 30 mm. The MIC came to 12.5 µg/mL (≈ 45.6 µM) in data set [3] (C. albicans B-310, 24 hours); 12.5 µg/mL (≈ 45.6 µM) in data set [3] (C. albicans strain 3153A); 12.5 µg/mL (≈ 45.6 µM) in [3] (C. albicans strain B 311); 1.6 µg/mL (≈ 5.83 µM) in [3] (C. albicans strain BC 759).

By zone of inhibition is commonly meant the extent of the growth-free halo in a diffusion test. By MIC is commonly meant the smallest concentration in the dilution series that meets the test's criterion for growth inhibition.

These data come from US4454065A, “Oligopeptide prodrugs” (SmithKline Beckman Corporation, priority 1983, dated 1984).
